Reference: PubChem BioAssay (NCI)
Values joined by “and” are separate entries in the source; they are usually repeats but may differ in a detail not shown here. Equal entries are not always repeated.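 Where inhibition never reached the appropriate level, the endpoint shown equals the highest concentration tested. Otherwise, values were interpolated linearly from a five-concentration, 48-hour dose response in 96-well plates. GI50 marks 50% less growth. TGI is the concentration that stops growth completely.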

How the values were obtained:
Assay in all cases: growth of human tumour cells (NCI), 48 h
A549 NSCLC = system: A549 NSCLC
RXF 393 renal = system: RXF 393 renal
OVCAR-4 ovarian = system: OVCAR-4 ovarian
MALME-3M melanoma = system: MALME-3M melanoma
SNB-75 CNS = system: SNB-75 CNS
HOP-62 NSCLC = system: HOP-62 NSCLC
TK-10 renal = system: TK-10 renal
OVCAR-3 ovarian = system: OVCAR-3 ovarian
KM12 colon = system: KM12 colon
HCT-116 colon = system: HCT-116 colon

SMILES | TGI (A549 NSCLC) | TGI (RXF 393 renal) | TGI (OVCAR-4 ovarian) | TGI (MALME-3M melanoma) | TGI (SNB-75 CNS) | TGI (HOP-62 NSCLC) | TGI (TK-10 renal) | TGI (OVCAR-3 ovarian) | TGI (KM12 colon) | TGI (HCT-116 colon) | GI50 (A549 NSCLC) | GI50 (RXF 393 renal) | GI50 (KM12 colon) | GI50 (OVCAR-4 ovarian) | GI50 (SNB-75 CNS) | GI50 (HOP-62 NSCLC) | GI50 (HCT-116 colon) | GI50 (TK-10 renal) | GI50 (OVCAR-3 ovarian) | GI50 (MALME-3M melanoma)
Cc1ccc(S(=O)(=O)N/N=C(\c2nc3ccc([N+](=O)[O-])cc3[nH]c2=O)C(O)c2ccc([N+](=O)[O-])cc2)cc1 (centres undefined) | > 100 µM | > 100 µM | > 100 µM | > 100 µM | > 100 µM | > 100 µM | > 100 µM | > 100 µM | – | – | – | – | – | – | – | – | – | – | – | –
Cc1ccccc1NC(=O)/C=N/O | > 100 µM | > 100 µM | > 100 µM | > 100 µM | > 100 µM | > 100 µM | > 100 µM | > 100 µM | > 100 µM | > 100 µM | – | – | – | – | – | – | – | – | – | –
C/C=C/C/C=C/[C@H](C)C[C@H](O)[C@@H]1C[C@@H]2O[C@H]2/C=C/[C@@H]2OC(C)(C)O[C@H]2/C=C/C[C@H](C)CC(=O)O1 | > 100 µM | > 100 µM | > 100 µM | – | > 100 µM | 90.2 µM | > 100 µM | > 100 µM | > 100 µM | > 100 µM | 8.79 µM | 30.4 µM | 7.85 µM | 9.9 µM | 24.6 µM | 15.1 µM | 8.85 µM | 51.8 µM | 12.4 µM | –
COCCOCCOCc1n(Cc2ccc3ccccc3c2)c2ccccc2[n+]1Cc1ccc2ccccc2c1 | 3.84 µM | 1.58 µM | 1.19 µM | 1.38 µM | 1.31 µM | 2.59 µM | 2.15 µM | 1.48 µM | 1.29 µM | 1.65 µM | 1.33 µM | 0.318 µM | 0.352 µM | 0.231 µM | 0.236 µM | 1.17 µM | 0.385 µM | 0.772 µM | 0.322 µM | 0.351 µM
Cn1c(=O)nc2n(-c3ccc(Cl)cc3)c(-c3ccccc3)c(-c3ccccc3)nc-2c1=O | > 100 µM | – | > 100 µM | > 100 µM | > 100 µM | 66.7 µM | > 100 µM | 82.1 µM | > 100 µM | – | – | – | – | – | – | – | – | – | – | –
Nc1ccc(-c2cc(C(=O)Nc3nccs3)[nH]c(=S)n2)cc1 | > 100 µM | > 100 µM | > 100 µM | > 100 µM | > 100 µM | – | > 100 µM | > 100 µM | > 100 µM | > 100 µM | – | – | – | – | – | – | – | – | – | –
C=C1c2ccccc2C(=O)c2c1c1c(C(=O)OC)c(OC(=O)OCc3ccc([N+](=O)[O-])cc3)ccc1n2Cc1ccccc1 | > 100 µM | > 100 µM | > 100 µM | > 100 µM | – | 29.3 µM | > 100 µM | 8.05 µM | 61.4 µM | 20.4 µM | 16.5 µM | 3.1 µM | 12.7 µM | 23.2 µM | – | 13.3 µM | 4.48 µM | 21.1 µM | 2.39 µM | 36 µM
O=c1c2ccccc2[nH]c2c(O)ccc(O)c12 | > 100 µM | 25.8 µM | 18.5 µM | 59.7 µM | – | > 100 µM | 52.6 µM | 36.1 µM | > 100 µM | 37.9 µM | – | – | – | – | – | – | – | – | – | –
C/C(=N\NC(=O)C[N+](C)(C)C)c1sc(-c2cccnc2)nc1C | > 100 µM | > 100 µM | – | > 100 µM | > 100 µM | > 100 µM | > 100 µM | > 100 µM | > 100 µM | > 100 µM | – | – | – | – | – | – | – | – | – | –
S=c1o[nH]c(-c2ccccc2)c1C=Nc1ccccc1 | > 100 µM | > 100 µM | > 100 µM | > 100 µM | > 100 µM | – | > 100 µM | – | > 100 µM | – | – | – | – | – | – | – | – | – | – | –
CCC1C(C)C=NN1c1nc(N)nc(C(C#N)=Nc2ccc(N(C)C)cc2)n1 (centres undefined) | > 50 µM | 24 µM | > 50 µM | – | 22.6 µM | > 50 µM | 18.9 µM | 21.8 µM | 18.6 µM | > 50 µM | 33.9 µM | 10.3 µM | 9.85 µM | 16.3 µM | 8.95 µM | 18.8 µM | 16.5 µM | 10.6 µM | 10.1 µM | –
CCO/S(=N/S(=O)(=O)c1ccccc1)c1ccccc1[N+](=O)[O-] (centres undefined) | > 100 µM | – | > 100 µM | > 100 µM | > 100 µM | > 100 µM | – | > 100 µM | > 100 µM | – | – | – | – | – | – | – | – | – | – | –
O=C(Nc1cccc(-n2cc(-c3ccncc3)c(-c3ccc(O)c(Cl)c3)n2)c1)c1ccc2c(c1)OCCO2 | > 100 µM | > 100 µM | > 100 µM | > 100 µM | > 100 µM | > 100 µM | > 100 µM | – | > 100 µM | > 100 µM | 5.85 µM | 3.02 µM | 4.83 µM | > 100 µM | 4 µM | > 100 µM | 5.44 µM | > 100 µM | – | > 100 µM
O=c1[nH]c2cc([N+](=O)[O-])ccc2nc1/C(=N/Nc1ccccc1)C(O)c1ccco1 (centres undefined) | > 100 µM | > 100 µM | > 100 µM | > 100 µM | > 100 µM | > 100 µM | – | – | > 100 µM | > 100 µM | – | – | – | – | – | – | – | – | – | –
Cc1cc(C(=O)/C=C/c2ccc[nH]2)ccc1-n1ccc(C(F)(F)F)n1 | > 100 µM | 4.74 µM | > 100 µM | 54.7 µM | – | > 100 µM | > 100 µM | 6.78 µM | > 100 µM | > 100 µM | 6.82 µM | 1.8 µM | 1.01 µM | 3.18 µM | – | 34.8 µM | 8.63 µM | 27.5 µM | 2.29 µM | 7.25 µM
NCCCCCNc1noc(Cc2c[nH]c3cc(Br)ccc23)n1 | 38.8 µM | 5.17 µM | 52.4 µM | 22.7 µM | – | 29.3 µM | 22.3 µM | 3.39 µM | 14.7 µM | 13.4 µM | 3.88 µM | 1.54 µM | 1.24 µM | 6.7 µM | – | 3.79 µM | 0.675 µM | 7.66 µM | 1.4 µM | 2.59 µM
Nc1ncnc2c1ncn2C1OC(COS(N)(=O)=O)C(O)C1O (centres undefined) | – | – | 0.00718 µM and 0.0357 µM | – | 0.0083 µM and 0.0565 µM | – | – | – | – | 0.0156 µM and 0.0656 µM | – | – | – | 0.00118 µM | 0.00255 µM and 0.0194 µM | – | 0.00252 µM and 0.0248 µM | – | – | –
